According to patent US9063046B1, “Hand-held device with reagents and method for detection and diagnostics” (priority 2012, dated 2015):

Experiments:
spores of B. atrophaeus = type: cell-based, Bacillus atrophaeus
B. atrophaeus endospores = test system: B. atrophaeus endospores; parameters: species or system Bacillus atrophaeus
P. aeruginosa = test system: P. aeruginosa; parameters: species or system Pseudomonas aeruginosa
Pixuna virus (PIXV) = type: cell-based; details: screening, FIG. 1; guanidium thiocyanate at 3.5 M
VACV = test system: VACV; parameters: species or system Vaccinia virus

For `O=CCCCC=O` [glutaraldehyde], the “killing / inactivating effect on spores” value (spores of B. atrophaeus) was “did not completely kill all of the spores”.
`OO` [hydrogen peroxide] was tested, and the “killing / inactivating effect on spores” value (spores of B. atrophaeus) was “did not completely kill all of the spores”.
For cupric ascorbate, the “ELISA sensitivity for spores, of untreated controls” value (B. atrophaeus endospores) was 80-90% and the “ELISA sensitivity for vegetative bacteria, of untreated controls” value (P. aeruginosa) was 80-90%.
`N#CS.N=C(N)N` [Guanidium thiocyanate, guanidium thiocyanate] was tested, and the “killing / inactivating effect on spores” value (spores of B. atrophaeus) was “little inactivating effect” and the “inactivating effect on PIXV” value (Pixuna virus (PIXV)) was “little inactivating effect”.
`CC(=O)OO` [peracetic acid] was tested, and the “ELISA sensitivity for VACV, of untreated controls” value (VACV) was about 50%.
